# Experimental data taken from PubChem BioAssay AID1963827 (Molecular Pharmacology Branch, DTP, NCI, 2024).
# Tested on: 994946-033-R-J1-PDC complex spheroid viability
# Experiment: Anticancer human tumor 994946-033-R-J1-PDC patient-derived melanoma cell line growth inhibition [POLQ]
# Conditions: for IC50: curve of first compound; for viability, T/C: stronger effect = lower value
# Procedure, shortened: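 Complex spheroid viability model combining PDC tumour cells with endothelial (HUVEC) and MSC stromal cells. Novobiocin, ART-558 or RP6685 were tested singly and in combination with standard and investigational anticancer drugs. Each was titrated in half-log steps from near clinical Cmax, or from 10 microM where Cmax was unknown.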
# [1] = second compound 0.0316 µM, first compound 0.0316 µM
# [2] = second compound 0.0316 µM, first compound 0.1 µM
# [3] = second compound 0.1 µM, first compound 0.0316 µM
# [4] = second compound 0.1 µM, first compound 0.1 µM
# [5] = second compound 0.316 µM, first compound 0.0316 µM
# [6] = second compound 0.316 µM, first compound 0.1 µM
# [7] = second compound 1 µM, first compound 0.0316 µM
# [8] = second compound 1 µM, first compound 0.1 µM
# [9] = second compound 3.16 µM, first compound 0.0316 µM
# [10] = second compound 3.16 µM, first compound 0.1 µM
# [11] = second compound 10 µM, first compound 0.0316 µM
# [12] = second compound 10 µM, first compound 0.1 µM
# 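Note: spheroids exposed to drugs for 7 days.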
# 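Throughout, for viability, T/C: 100% = DMSO vehicle treated spheroids.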
smiles,measurement,setting,value
CC[C@@]1(O)C(=O)OCc2c1cc1n(c2=O)Cc2cc3c(CN(C)C)c(O)ccc3nc2-1 + Cc1cccc(N(C)C(=O)C2C(O)CCN2c2nc(C)cc(C(F)(F)F)c2C#N)c1,IC50,second compound 0.0316 µM,19.1 nM
same,IC50,second compound 0.1 µM,19.1 nM
same,IC50,second compound 0.316 µM,20.1 nM
same,IC50,second compound 1 µM,11.2 nM
same,IC50,second compound 3.16 µM,18.3 nM
same,IC50,second compound 10 µM,21.1 nM
same,"viability, T/C","second compound 0.0316 µM, first compound 0.000316 µM",80.5%
same,"viability, T/C","second compound 0.0316 µM, first compound 0.001 µM",94%
same,"viability, T/C","second compound 0.0316 µM, first compound 0.00316 µM",110%
same,"viability, T/C","second compound 0.0316 µM, first compound 0.01 µM",73%
same,"viability, T/C",[1],30.9%
same,"viability, T/C",[2],8.8%
same,"viability, T/C","second compound 0.1 µM, first compound 0.000316 µM",113%
same,"viability, T/C","second compound 0.1 µM, first compound 0.001 µM",78.6%
same,"viability, T/C","second compound 0.1 µM, first compound 0.00316 µM",87%
same,"viability, T/C","second compound 0.1 µM, first compound 0.01 µM",78%
same,"viability, T/C",[3],28.5%
same,"viability, T/C",[4],9.63%
same,"viability, T/C","second compound 0.316 µM, first compound 0.000316 µM",83.4%
same,"viability, T/C","second compound 0.316 µM, first compound 0.001 µM",106%
same,"viability, T/C","second compound 0.316 µM, first compound 0.00316 µM",94.8%
same,"viability, T/C","second compound 0.316 µM, first compound 0.01 µM",82%
same,"viability, T/C",[5],29.2%
same,"viability, T/C",[6],12.1%
same,"viability, T/C","second compound 1 µM, first compound 0.000316 µM",108%
same,"viability, T/C","second compound 1 µM, first compound 0.001 µM",71.3%
same,"viability, T/C","second compound 1 µM, first compound 0.00316 µM",79.3%
same,"viability, T/C","second compound 1 µM, first compound 0.01 µM",57.5%
same,"viability, T/C",[7],26.9%
same,"viability, T/C",[8],9.85%
same,"viability, T/C","second compound 3.16 µM, first compound 0.000316 µM",96.1%
same,"viability, T/C","second compound 3.16 µM, first compound 0.001 µM",98.7%
same,"viability, T/C","second compound 3.16 µM, first compound 0.00316 µM",77%
same,"viability, T/C","second compound 3.16 µM, first compound 0.01 µM",71%
same,"viability, T/C",[9],33.4%
same,"viability, T/C",[10],10.7%
same,"viability, T/C","second compound 10 µM, first compound 0.000316 µM",113%
same,"viability, T/C","second compound 10 µM, first compound 0.001 µM",99.6%
same,"viability, T/C","second compound 10 µM, first compound 0.00316 µM",107%
same,"viability, T/C","second compound 10 µM, first compound 0.01 µM",81.8%
same,"viability, T/C",[11],32.7%
same,"viability, T/C",[12],10.4%
COc1cccc2c1C(=O)c1c(O)c3c(c(O)c1C2=O)CC(O)(C(=O)CO)CC3OC1CC(N)C(O)C(C)O1 (centres undefined) + Cc1cccc(N(C)C(=O)C2C(O)CCN2c2nc(C)cc(C(F)(F)F)c2C#N)c1,IC50,second compound 0.0316 µM,< 31.6 nM
same,IC50,second compound 0.1 µM,< 31.6 nM
same,IC50,second compound 0.316 µM,< 31.6 nM
same,IC50,second compound 1 µM,< 31.6 nM
same,IC50,second compound 3.16 µM,< 31.6 nM
same,IC50,second compound 10 µM,< 31.6 nM
same,"viability, T/C",[1],31.8%
same,"viability, T/C",[2],10.5%
same,"viability, T/C","second compound 0.0316 µM, first compound 0.316 µM",2.24%
same,"viability, T/C","second compound 0.0316 µM, first compound 1 µM",1.98%
same,"viability, T/C","second compound 0.0316 µM, first compound 3.16 µM",2.99%
same,"viability, T/C","second compound 0.0316 µM, first compound 10 µM",0.53%
same,"viability, T/C",[3],26.8%
same,"viability, T/C",[4],6.95%
same,"viability, T/C","second compound 0.1 µM, first compound 0.316 µM",3.98%
same,"viability, T/C","second compound 0.1 µM, first compound 1 µM",0.54%
same,"viability, T/C","second compound 0.1 µM, first compound 3.16 µM",1.3%
same,"viability, T/C","second compound 0.1 µM, first compound 10 µM",1.07%
same,"viability, T/C",[5],22.5%
same,"viability, T/C",[6],7.12%
same,"viability, T/C","second compound 0.316 µM, first compound 0.316 µM",3.03%
same,"viability, T/C","second compound 0.316 µM, first compound 1 µM",2.42%
same,"viability, T/C","second compound 0.316 µM, first compound 3.16 µM",1.56%
same,"viability, T/C","second compound 0.316 µM, first compound 10 µM",0.77%
same,"viability, T/C",[7],47.9%
same,"viability, T/C",[8],7.31%
same,"viability, T/C","second compound 1 µM, first compound 0.316 µM",1.73%
same,"viability, T/C","second compound 1 µM, first compound 1 µM",2.31%
same,"viability, T/C","second compound 1 µM, first compound 3.16 µM",1.01%
same,"viability, T/C","second compound 1 µM, first compound 10 µM",0.51%
same,"viability, T/C",[9],22.8%
same,"viability, T/C",[10],7.88%
same,"viability, T/C","second compound 3.16 µM, first compound 0.316 µM",1.7%
same,"viability, T/C","second compound 3.16 µM, first compound 1 µM",1.41%
same,"viability, T/C","second compound 3.16 µM, first compound 3.16 µM",1.39%
same,"viability, T/C","second compound 3.16 µM, first compound 10 µM",0.69%
same,"viability, T/C",[11],33.1%
same,"viability, T/C",[12],8.28%
same,"viability, T/C","second compound 10 µM, first compound 0.316 µM",2.08%
same,"viability, T/C","second compound 10 µM, first compound 1 µM",1.32%
same,"viability, T/C","second compound 10 µM, first compound 3.16 µM",0.67%
same,"viability, T/C","second compound 10 µM, first compound 10 µM",0.65%
